Test results reported in patent publication US7220751B2, “Quinazoline derivatives and drugs” (Nippon Shinyaku Co., Ltd., priority 2001, dated 2007).
Where a name gives a salt, the structure may show the parent alone. Marks after values point to notes of the source that are not given here.

Legend:
Mouse formalin test = format: in vivo; details: male ddy mouse, 30 mg/kg subcutaneously 15 min before 1% formalin, mean
Procedure: A male ddy strain mouse (4 to 5 weeks old) was kept at a temperature of 21 to 25° C. and a humidity of 45 to 65% in a breeding room under the conditions of a constant lighting cycle (light: 12 hours, dark: 12 hours) while allowing the animal to access a feed and water ad libitum, whereby acclimatizing the animal over a period of 1 week or longer. Each 6 to 7 animals were assigned to each group.
After the mouse was acclimatized to an observation cage sufficiently, it was treated with a test compound, and then after 15 minutes 20 μl of 1% formalin solution was given subcutaneously to a hind limb. The test compound was dissolved in a saline, and immediately given to the mouse subcutaneously at the dose of 0.1 ml per 10 g body weight using a 27G needle. A control group received the physiological saline. The animals were returned to their observation cages, and examined for the duration of the aversive responses such as licking or biting the posterior limb using a stopwatch over a period of 30 minutes.
The significance of the difference was analyzed by the one-way layout analysis of variance between the control group and a treatment group followed by Dunnett's multiple comparison.

[1] = target: T1, human nociceptin receptor (Homo sapiens, UniProt P41146); experiment: Nociceptin receptor binding test ([3H]-nociceptin); details: membranes of human nociceptin receptor expressing cell; 0.08 nM [3H]-nociceptin; 25° C., 60 minutes
T1 construct: expressed in transfected cells
T1 sequence (P41146 whole entry): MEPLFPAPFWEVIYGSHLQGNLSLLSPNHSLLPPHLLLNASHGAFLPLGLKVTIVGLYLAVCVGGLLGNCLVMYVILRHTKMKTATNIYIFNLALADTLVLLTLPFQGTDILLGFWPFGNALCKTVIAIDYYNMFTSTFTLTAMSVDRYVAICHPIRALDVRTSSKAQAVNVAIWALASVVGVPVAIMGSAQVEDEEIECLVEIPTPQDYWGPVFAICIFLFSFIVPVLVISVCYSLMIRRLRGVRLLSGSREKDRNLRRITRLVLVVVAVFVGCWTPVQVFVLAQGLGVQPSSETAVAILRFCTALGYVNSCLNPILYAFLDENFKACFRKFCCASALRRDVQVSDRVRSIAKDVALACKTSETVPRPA
Procedure: Nociceptin Receptor Binding Test
A suspension of cell membrane obtained from a human nociceptin receptor expressing cell was adjusted at a protein concentration of 5 to 10 μg/ml using a Tris-buffer solution [50 mM Tris-HCl (pH 7.8), 5 mM MgCl2, 1 mM EGTA, 0.1% BSA]. The solution was incubated with [^3H]-nociceptin (diluted at the final concentration of 0.08 nM using Tris-buffer) and a test compound at 25° C. for 60 minutes. The membrane was recovered using a cell harvester onto a glass fiber (GF) filter GF/B which had previously been treated with 0.3% polyethyleneimine (PEI), and then washed further 4 times with a washing solution[50 mM Tris-HCl (pH 7.8), 4° C.]. The filter was transferred into a counteing vial. Adequate amount of scintillator was added to the vial and the radioactivity was measured using a liquid scintillation counter. A non-specific binding was regarded as a binding of [^3H]-nociceptin in the presence of 10 μM nociceptin, and a specific binding was regarded as the difference between the total binding and the non-specific binding. Based on the % binding inhibition in the presence of the test compound, an IC50 value was determined, and used together with the Kd value of [^3H]-nociceptin for calculating the Ki value of the test compound.

human μ receptor = target: T2, human μ receptor (Homo sapiens, UniProt P35372); experiment: μ receptor binding test ([3H]-diprenorphine); details: human μ receptor expressing cell membrane preparation; 0.13 nM [3H]-diprenorphine; 25° C., 90 minutes; read-out: μ preceptor Ki
T2 construct: purchased Receptor Biology, Inc
T2 sequence (P35372 whole entry): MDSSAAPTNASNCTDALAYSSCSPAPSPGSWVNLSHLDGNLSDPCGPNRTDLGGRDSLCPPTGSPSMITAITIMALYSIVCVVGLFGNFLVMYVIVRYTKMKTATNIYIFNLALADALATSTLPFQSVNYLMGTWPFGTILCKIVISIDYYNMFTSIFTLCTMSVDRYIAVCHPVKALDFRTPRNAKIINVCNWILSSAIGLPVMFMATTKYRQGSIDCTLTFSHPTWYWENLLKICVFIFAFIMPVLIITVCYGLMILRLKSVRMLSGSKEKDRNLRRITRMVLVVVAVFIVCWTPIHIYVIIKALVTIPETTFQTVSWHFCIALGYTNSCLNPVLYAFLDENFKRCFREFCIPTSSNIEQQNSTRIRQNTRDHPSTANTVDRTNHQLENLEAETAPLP
Procedure: A nociceptin receptor is a member of an opioid receptor family. An inventive compound was examined for its binding capacity to a μ receptor which is also a member of an opioid receptor family and which is involved in an analgesic effect and a dependency, and compared with the binding capacity to the nociceptin receptor.
A human μ receptor expressing cell membrane preparation (Receptor Biology, Inc) was adjusted at the protein concentration of 8.5 μg/ml using a Tris-buffer solution [50 mM Tris-HCl (pH 7.8), 5 mM MgCl2, 1 mM EGTA, 0.1% BSA]. The solution incubated with [^3H]-diprenorphine (diluted at the final concentration of 0.13 nM using Tris-buffer) and a test compound at 25° C. for 90 minutes. The membrane was recovered using a cell harvester onto a GF/B filter which had previously been treated with 0.3% PEI, and then washed further 4 times with a washing solution [50 mM Tris-HCl (pH 7.8), 4° C.]. The filter was transferred into a counting vial. Adequate amount of scintillator was added and the radioactivity was measured using a liquid scintillation counter. A non-specific binding was regarded as a binding of [^3H]-diprenorphine in the presence of 100 μM naloxone, and a specific binding was regarded as the difference between the total binding and the non-specific binding. Based on the % binding inhibition in the presence of the test compound, an IC50 value was determined, and used together with the Kd value of [^3H]-diprenorphine for calculating the Ki value of the test compound.

[2] = 0~10 min after formalin treatment (phase 1)
[3] = 10~30 min after formalin treatment (phase 2)

SMILES	Duration of the abersive response (Mouse formalin test; [2])	Duration of the abersive response (Mouse formalin test; [3])	Ki [1] [nM]	Ki (human μ receptor) [nM]
Cc1ccc2nc(C=Cc3ccccn3)nc(N[C@@H]3CC[C@H](N)C[C@@H]3C)c2c1 (relative stereo) [Example 1, cis-4-amino-cis-2-methyl-N-{6-methyl-2-[2-(2-pyridyl)ethenyl]quinazolin-4-yl}cyclohexylamine Trihydrochloride]	47.5** sec	74.5* sec	4	207
Cc1ccc2nc(C=Cc3ccccn3)nc(N[C@H]3CC[C@@H](N)C[C@H]3C)c2c1 [Example 58, (1S, 2R, 4R)-4-amino-2-methyl-N-{6-methyl-2-[2-(2-pyridyl)ethenyl]quinazolin-4-yl}cyclohexylamine Trihydrochloride]			2	234
COc1ccc2nc(C=Cc3ccccn3)nc(N[C@H]3CC[C@@H](N)CC3)c2c1 [Example 44, cis-4-{6-methoxy-2-[2-(2-pyridyl)ethenyl]quinazolin-4-yl}aminocyclohexylamine Trihydrochloride]			23	492
Cc1ccc2nc(C=Cc3ccccn3)nc(N[C@@H]3CC[C@H](N)C[C@@H]3C)c2c1 [Example 57, (1R, 2S, 4S)-4-amino-2-methyl-N-{6-methyl-2-[2-(2-pyridyl)ethenyl]quinazolin-4-yl}cyclohexylamine Trihydrochloride]			42	284
Cc1ccc2nc(C=Cc3ccccn3)nc(N[C@H]3CC[C@@H](N)CC3)c2c1.Cl.Cl.Cl [Example 40, cis-4-{6-methyl-2-[2-(2-pyridyl)ethenyl]quinazolin-4-yl}aminocyclohexylamine Trihydrochloride]	64.5** sec	77.6* sec	18	288
COc1ccc2nc(C=Cc3ccc(Cl)cc3)nc(N[C@H]3CCCC[C@H]3N)c2c1 (relative stereo) [Example 25, cis-2-[2-(4-chlorostyryl)-6-methoxyquinazolin-4-yl]aminocyclohexylamine dihydrochloride]			110	204
Cc1ccc2nc(C=Cc3cccc(C)n3)nc(NC3CCC(N)CC3C)c2c1.Cl.Cl.Cl (stereo not drawn) [Example 52, cis-4-amino-cis-2-methyl-N-{6-methyl-2-[2-(6-methyl-2-pyridyl)ethenyl]quinazolin-4-yl}cyclohexylamine Trihydrochloride]	79.4** sec	77.0** sec		
Cc1ccc2nc(C=Cc3ccc(Cl)cc3)nc(N[C@H]3CC[C@@H](N)CC3)c2c1 [Example 22, cis-4-[2-(4-chlorostyryl)-6-methylquinazolin-4-yl]aminocyclohexylamine dihydrochloride]			29	313
COc1ccc2nc(C=Cc3ccccn3)nc(N[C@@H]3CC[C@H](N)C[C@@H]3C)c2c1 (relative stereo) [Example 51, cis-4-amino-cis-2-methyl-N-{6-methoxy-2-[2-(2-pyridyl)ethenyl]quinazolin-4-yl}cyclohexylamine Trihydrochloride]			6	206
